Reference: PubChem BioAssay (NCI)
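Each compound was tested at five concentrations against cells in 96-well plates for 48 hours. Definition used: TGI = concentration required for complete inhibition of growth.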

Experiments:
Experiment in all cases: inhibition of tumour cell growth, NCI panel, 48 h
[1] = test system: NCI-H460 lung
[2] = test system: OVCAR-5 ovarian
[3] = test system: KM12 colon
[4] = test system: SW-620 colon
[5] = test system: MOLT-4 leukemia
[6] = test system: SNB-75 CNS
[7] = test system: HCC-2998 colon
[8] = test system: MCF7 breast
[9] = test system: MALME-3M melanoma
[10] = test system: NCI-H23 lung
[11] = test system: SF-295 CNS
[12] = test system: K-562 leukemia
[13] = test system: SK-MEL-28 melanoma
[14] = test system: A549 NSCLC
[15] = test system: 786-0 renal
[16] = test system: A498 renal
[17] = test system: HOP-62 NSCLC
[18] = test system: SF-539 CNS
[19] = test system: TK-10 renal
[20] = test system: PC-3 prostate
[21] = test system: OVCAR-8 ovarian
[22] = test system: SR leukemia
[23] = test system: HCT-15 colon
[24] = test system: CCRF-CEM leukemia
[25] = test system: SF-268 CNS
[26] = test system: SK-MEL-5 melanoma
[27] = test system: HL-60(TB) leukemia
[28] = test system: EKVX NSCLC
[29] = test system: SK-MEL-2 melanoma
[30] = test system: OVCAR-3 ovarian
[31] = test system: ACHN renal
[32] = test system: NCI-H522 lung
[33] = test system: HCT-116 colon
[34] = test system: NCI-H226 lung
[35] = test system: HS 578T breast
[36] = test system: UACC-257 melanoma
[37] = test system: RPMI-8226 leukemia
[38] = test system: HT29 colon
[39] = test system: SN12C renal
[40] = test system: U251 CNS

Measured: TGI

Cc1ncc([N+](=O)[O-])n1CC(O)Cn1ccnc1[N+](=O)[O-] (stereo not given)
> 100 µM: all assays above
